# According to patent US20170105967A1, “COMPOSITIONS AND METHODS OF TREATMENT OF INFLAMMATORY SKIN CONDITIONS USING ALLANTOIN” (Scioderm, Inc., priority 2010, published 2017):
# Columns and labels:
# [1] = system: calluses and other forms of hyperkeratization; details: lower concentrations; cited from earlier work
# [2] = in vitro; reactive sulphydryl groups released; cited from earlier work
# [3] = percutaneous absorption through dermis only human cadaver skin; assay type: in vitro ADME; details: isolated dermis
# Description: The formulations A.S. 1-139E, A.S. 1-81B, A.S. 1-135C, A.S. 1-135G, and A.S. 1-81 G were tested on a minimum of triplicate sections from three different cadaver skin donors and three different porcine skin donors for the percutaneous absorption of allantoin over a 48-hour dose period. The intent of this study was to mimic the absorption of allantoin directly into the capillary bed, while the dermis only study attempted to mimic the loss of skin barrier function due to broken skin or blisters. In addition, each formulation was tested in at least triplicate membrane chambers. At preselected times after dosing, the dermal receptor solution was removed in its entirety, replaced with fresh receptor solution, and an aliquot saved for subsequent analysis. The samples were analyzed for the allantoin using high performance liquid chromatography with UV and MS detection (HPLC-UV-MS). The bottom table of FIG. 3 lists a remanufacture of the 9% allantoin cream (A.S. 1-153H) to achieve a better viscosity of the final product.
# [4] = sodium lauryl sulfate and beeswax emulsion, pH 6.8 to 7.5; with time and accelerated tests at 40° C.; cited from earlier work
# psoriatic scales = details: in vitro incubation with allantoin solution; cited from earlier work
compound,measurement,setting,value
NC(=O)NC1NC(=O)NC1=O (centres unmarked) [allantoin],concentration loosening the desmosomes (protein bridges),[1],< 1%
same,protein dispersing activity,[2],confirm the protein dispersing activity
same,penetration of allantoin when the skin's barrier has been damaged or removed,[3],increases significantly
same,stability of allantoin,[4],degrades significantly
same,concentration showing keratolytic activity on psoriatic scales,psoriatic scales,≥ 0.2%
